Results on one molecule are retold here after patent US20150173364A1, “HERBICIDAL COMPOSITIONS CONTAINING FLUMIOXAZIN, AMINOPYRALID AND FLUROXYPYR OR 2,4-D” (Dow AgroSciences LLC, priority 2013, published 2015).

This assay has as its system BOIVE: whitehead broom (Borerria verticillata). The assay is described as follows: Postemergence herbicidal activity of mixtures in the field, visual weed control. To be noted: postemergence field trial. Format: in vivo. The method, then: Field trials were conducted in Brazil in pasture area cultivated with Brachiaria brizantha using standard herbicide small-plot research methodology. The plot size used was 3 meters (m)×8 m (width×length) with 4 replicates per treatment. The pasture was grown using normal cultural practices for fertilization, management, and maintenance to ensure good growth of the crop and the weeds. […] All treatment results, both for the single product and mixtures, are an average of 3 to 4 replicates and the tank-mix interactions are significant at the […] level. Colby's equation was used to determine the herbicidal effects expected from the mixtures (Colby, S. R. Calculation of the synergistic and antagonistic response of herbicide combinations. […] However, the experiments described herein were performed such that active ingredients B and C were combined and only the efficacy of the combination was determined. As such, Colby's equation simplifies to Expected=A+Z−(AZ/100) A=observed efficacy of active ingredient A (flumioxazin) at the same concentration as used in the mixture; […] All comparisons are an average of 3 to 4 replicates and are significant at the […] level.

In the case of `C#CCN1C(=O)COc2cc(F)c(N3C(=O)C4=C(CCCC4)C3=O)cc21` [Flumioxazin, 2-[7-fluoro-3,4-dihydro-3-oxo-4-(2-propyn-1-yl)-2H-1,4-benzoxazin-6-yl]-4,5,6,7-tetrahydro-1H-isoindole-1,3(2H)-dione], the “% Visual Control BOIVE (281 DAA) Obs” value turned out to be 0% (Flumioxazin 25 g ai/ha alone); 0% (Flumioxazin 50 g ai/ha alone); 4% (Flumioxazin 75 g ai/ha alone); 13% (Flumioxazin 100 g ai/ha alone); 14% (Flumioxazin 125 g ai/ha alone).
